Key:
[1] = target: T1, KDM4E (Homo sapiens, UniProt B2RXH2); test: Inhibition of KDM4E arginine hydroxylation (ROH), LC–MS; type: biochemical; details: for inhibition of +16 Da product formation: KDM4E with H2a(1–20)
T1 construct: KDM4E1–337; made in house; host or cells: E. coli
T1 sequence (B2RXH2 1-337): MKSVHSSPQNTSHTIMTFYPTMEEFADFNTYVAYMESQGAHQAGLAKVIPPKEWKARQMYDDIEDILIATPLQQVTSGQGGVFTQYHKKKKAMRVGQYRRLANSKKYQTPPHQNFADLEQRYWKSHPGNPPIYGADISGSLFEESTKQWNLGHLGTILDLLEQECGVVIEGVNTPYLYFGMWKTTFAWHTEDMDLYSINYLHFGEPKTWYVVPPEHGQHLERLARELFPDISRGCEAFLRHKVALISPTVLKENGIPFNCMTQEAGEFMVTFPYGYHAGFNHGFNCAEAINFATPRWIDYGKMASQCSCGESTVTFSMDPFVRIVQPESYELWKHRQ
Protocol: µM (NH4)2Fe(SO4)2, and 50 mM HEPES (pH 7.5). (c,d) Inhibition of arginine hydroxylation (ROH) activity of KDM4E by small molecule 2OG oxygenase inhibitors. ( c ) ROH activity measurements were performed using an LC–MS based assay (Error bars; +/- SD; n = 3 independent assays). Conditions: 10 µM H2a(1 -20) incubated with 1 µM KDM4E, 100 µM sodium L-ascorbate, 10 µM (NH4)2Fe(SO4)2 and 100 µM 2OG.
Reactions wer e quenched after 90 min. […]

[2] = system: KDM4A; test: MALDI–TOF MS screen of biotin-tagged H2a(1–20)R3X peptides with KDM4A; type: biochemical, human; details: for RDM activity: initial screen, biotinylated peptides
Text: (§1) To investigate whether histone H2a is a JmjC-KDM substrate, we initially used mass spectrometry (MS) to screen a set of biotinylated N-terminal H2a(1–20) peptides with post-translational modifications (PTMs) at Arg-3, i.e. asymmetrically/symmetrically di-methylated Arg-3 (H2aR3me2a, H2aR3me2s, respectively), mono-methylated Arg-3 (H2aR3me1) and citrullinated Arg-3 (H2aR3Ci), against KDM4A, KDM4D, KDM4E and KDM5C. […] H2a(1–20)R3me2a, which appeared to be the most efficient RDM substrate in the screen, was then re-synthesised without a biotin tag and tested for RDM activity using the catalytic domains of all KDM4/KDM5 subfamily members.
(§2) MS-based screening assays with peptides and calf thymus histones were as reported; see Supplementary Table 6 for conditions. Time course assays were based on reported procedures. In brief, equal volumes of the enzyme and substrate solutions were combined to initiate the reaction; 10 µL of 2% (v/v) formic acid (HCOOH) in ddH2O or 100% methanol was added to 10 µL of the reaction mixture to quench reactions at different time points. Unless otherwise stated, time course assays were carried out in triplicate. In some cases, LC–MS was used instead of MALDI-TOF MS to avoid a MALDI matrix induced artefact with the hydroxylated product (Supplementary Fig. 16).
(§3) Supplementary Figure 1 Initial Screen of H2a fragments with KD M4 A, KDM4D, KDM4E, and KDM5C.
(§4) KDM4D, KDM4E, and KDM5C with H2a(1–20)R3X peptides from the AltaBioscience peptide library (Set 5) […]
(§5) (potentially), KDM4E, and KDM5C with H2a(1–20)R3me2a; KDM4E and KDM5C with H2a(1–20)R3me2s; and KDM5C wit h H2a(1–20 )R3 me1 . +1 6 Da mass shift s corr esponding t o hydr oxylat ion, were observed wit h […]
(§6) 20), and H2a(1–20)Ci3 (only with KDM4E).
(§7) H 2 a( 1–20)Ci3 and KDM5C with H2a(1–20 ) . […]
(§8) peptides except H2a(1–20)R3me2a. * Low-level peaks indicating ~10% demethylation. Experiments were repeated with the same results. For assay conditions see Supplementary Table 6 (n = 2, independent assays). Peptides were synthesised linked with C-terminal Nε-(D-biotin)-L- ly si ne -amide group (see
(§9) Supplementary Table 5 ) . […]
(§10) (1 picture or pasted object on this page, not shown here)
(§11) [ E nz ym e] [Peptide] [2OG] [Ascorbate] [(NH4)2F e(S O4)2] [TCEP] Buffer pH7.5 Enzyme Cognate substrate (mM) (mM) (mM) (mM) (mM) (mM) [HE PE S]
(§12) Supplementary Table 6 Summary of MS assay conditions for substrate screening. These conditions enabled efficient turnover of established substrates. Reactions were carried out at 37 °C unless otherwise st ated. […]

[3] = system: KDM4D; test: MALDI–TOF MS screen of biotin-tagged H2a(1–20)R3X peptides with KDM4D; type: biochemical, human; details: 60 min, n = 2
Text: as §1, §2, §3, §4, §5, §6, §7, §8, §9, §10, §11, §12

[4] = target: T1, KDM4E; test: MALDI–TOF MS screen of biotin-tagged H2a(1–20)R3X peptides with KDM4E; type: biochemical; details: for +16 Da mass shift (hydroxylation) / −14 Da mass shift (demethylation): 60 min, KDM4E, MALDI–TOF MS, n = 2; for RDM activity: initial screen, biotinylated peptides
Text: as §1, §2, §3, §4, §5, §6, §7, §8, §9, §10, §11, §12

[5] = target: T2, KDM5C (Homo sapiens, UniProt P41229); test: MALDI–TOF MS screen of biotin-tagged H2a(1–20)R3X peptides with KDM5C; type: biochemical; details: for mass shift / −14 Da mass shift (demethylation): 60 min, KDM5C, MALDI–TOF MS, n = 2; for RDM activity: initial screen, biotinylated peptides
T2 construct: KDM5C 1– 765; made in house; host or cells: Sf9 cells
T2 sequence (P41229 1-765): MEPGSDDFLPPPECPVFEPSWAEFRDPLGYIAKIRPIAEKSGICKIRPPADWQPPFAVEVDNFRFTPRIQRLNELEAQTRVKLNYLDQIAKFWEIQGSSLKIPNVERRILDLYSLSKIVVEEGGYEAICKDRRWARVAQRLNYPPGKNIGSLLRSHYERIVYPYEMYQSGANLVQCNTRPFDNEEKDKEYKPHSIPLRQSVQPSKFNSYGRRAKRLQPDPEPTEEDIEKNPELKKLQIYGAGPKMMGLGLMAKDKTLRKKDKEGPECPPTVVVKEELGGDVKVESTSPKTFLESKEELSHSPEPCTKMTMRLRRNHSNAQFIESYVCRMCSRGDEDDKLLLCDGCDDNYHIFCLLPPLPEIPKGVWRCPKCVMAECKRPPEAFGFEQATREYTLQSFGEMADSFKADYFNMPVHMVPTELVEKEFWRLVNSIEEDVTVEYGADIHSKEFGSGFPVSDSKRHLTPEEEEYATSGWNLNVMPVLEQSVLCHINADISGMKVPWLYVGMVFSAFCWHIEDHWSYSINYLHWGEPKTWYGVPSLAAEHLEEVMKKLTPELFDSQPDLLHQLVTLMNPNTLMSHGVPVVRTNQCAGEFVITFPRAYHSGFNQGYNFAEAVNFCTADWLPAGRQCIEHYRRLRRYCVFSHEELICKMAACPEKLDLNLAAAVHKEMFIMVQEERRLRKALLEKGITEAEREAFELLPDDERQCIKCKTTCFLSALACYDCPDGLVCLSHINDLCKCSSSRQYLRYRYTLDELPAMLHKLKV
Text: as §1, §2, §3, §4, §5, §6, §7, §8, §9, §10, §11, §12

[6] = 60 min, 2 µM KDM4A, 10 µM peptide, MALDI–TOF MS, n = 2

**Q.** How did the “inhibition of +16 Da product formation” value [1] turn out when `O=C(O)c1ccnc(C(=O)O)c1` [2,4-PDCA, 2,4-pyridine dicarboxylic acid] was run?
**A.** inhibited

**Q.** What does the source list for `Oc1cccc2cccnc12` [IOX1, 8-hydroxyquinoline]?
**A.** IC50 [1]: 22.9 µM; inhibition of +16 Da product formation [1]: inhibited

**Q.** `O=C(O)CNC(=O)C(=O)O` [NOG, N-oxalylglycine] was tested. Which “inhibition of +16 Da product formation” value [1] did it give?
**A.** inhibited

**Q.** With “SGR GKQ GGKAR AKAKT R SSR - NH - Ahx - K- B i oti n [H2a(1–20) (AB), biotinylated H2a(1–20)]” as the compound, how does the mass shift [2, 6] read?
**A.** No mass shifts were observed

**Q.** And the “+16 Da mass shift (hydroxylation)” value [3]?
**A.** potentially

**Q.** What about the “+16 Da mass shift (hydroxylation)” value [4] of the same compound?
**A.** observed

**Q.** And the mass shift [5]?
**A.** No mass shifts were observed

**Q.** How did the mass shift [2, 6] turn out when “SGR[C i]GKQGGKARAKAKTRSSR-NH-Ahx-K-Biotin [H2a(1–20)Ci3 (AB), biotinylated H2a(1–20) with citrullinated Arg-3]” was run?
**A.** No mass shifts were observed

**Q.** And the mass shift [3]?
**A.** No mass shifts were observed

**Q.** And the “+16 Da mass shift (hydroxylation)” value [4]?
**A.** observed

**Q.** And the mass shift [5]?
**A.** No mass shifts were observed

**Q.** For “SGR[me1]GKQGGKARAKAKTRSSR-NH-Ahx-K-Biotin [H2a(1–20)R3me1 (AB), biotinylated H2a(1–20) with mono-methylated Arg-3]”, which mass shift [2, 6] is on record?
**A.** No mass shifts were observed

**Q.** And the RDM activity [2]?
**A.** to a lesser extent

**Q.** What about the “+16 Da mass shift (hydroxylation)” value [3] of the same compound?
**A.** potentially

**Q.** What about the “+16 Da mass shift (hydroxylation)” value [4] of the same compound?
**A.** observed

**Q.** What about the RDM activity [4] of the same compound?
**A.** Evidence for RDM activity

**Q.** And the “−14 Da mass shift (demethylation)” value [5]?
**A.** observed

**Q.** And the RDM activity [5]?
**A.** Evidence for RDM activity

**Q.** “SGR[me2a]GKQGGKARAKAKTRSSR-NH-Ahx-K-Biotin [H2a(1–20)R3me2a (AB), biotinylated H2a(1–20) with asymmetrically di-methylated Arg-3, AltaBioscience library]” was tested. Which “−14 Da mass shift (demethylation)” value ([2]; 60 min, 2 µM KDM4A, 10 µM peptide, 37 °C, MALDI–TOF MS, n = 2) did it give?
**A.** observed

**Q.** What about the RDM activity [2] of the same compound?
**A.** to a lesser extent

**Q.** And the “+16 Da mass shift (hydroxylation)” value [3]?
**A.** potentially

**Q.** And the “−14 Da mass shift (demethylation)” value [3]?
**A.** potentially

**Q.** And the “+16 Da mass shift (hydroxylation)” value [4]?
**A.** observed

**Q.** And the “−14 Da mass shift (demethylation)” value [4]?
**A.** observed

**Q.** And the RDM activity [4]?
**A.** Evidence for RDM activity

**Q.** What about the “−14 Da mass shift (demethylation)” value [5] of the same compound?
**A.** observed

**Q.** And the RDM activity [5]?
**A.** Evidence for RDM activity

**Q.** For “SGR[me2s ]GKQGGKARAKAKTRSSR-NH-Ahx-K-Biotin [H2a(1–20)R3me2s (AB), biotinylated H2a(1–20) with symmetrically di-methylated Arg-3]”, which mass shift [2, 6] is on record?
**A.** No mass shifts were observed

**Q.** What about the RDM activity [2] of the same compound?
**A.** to a lesser extent

**Q.** What about the “+16 Da mass shift (hydroxylation)” value [3] of the same compound?
**A.** potentially

**Q.** What about the “+16 Da mass shift (hydroxylation)” value [4] of the same compound?
**A.** observed

**Q.** What about the “−14 Da mass shift (demethylation)” value [4] of the same compound?
**A.** observed

**Q.** And the RDM activity [4]?
**A.** Evidence for RDM activity

**Q.** And the “−14 Da mass shift (demethylation)” value [5]?
**A.** observed

**Q.** And the RDM activity [5]?
**A.** Evidence for RDM activity
